Measurements reported in a melting point compilation (Tetko et al.; mined from patent text by program, amines drawn as free bases though some values may be those of a salt).

SMILES | melting point
CN(C)CCNC(=O)NCc1ccc2c(c1)-c1[nH]nc(-c3ccsc3)c1C2 | 247 to 249 °C
FC(F)c1nc2ccccc2n1-c1nc(NCc2cccnc2)nc(N2CCOCC2)n1 | 160 to 161 °C
CSc1sc(-c2nnn(C)n2)c2c1C(=O)CC(C)(C)C2 | 233 to 235 °C
Nc1nc(N)c(CCCc2cccc3ccccc23)c(N)n1 | 181 to 183 °C
CCc1nc(-c2ccc(OCCCn3ccnc3)cc2)no1 | 74 to 75.5 °C
CC(=O)NNc1ccnc2c(NC(=O)c3c(Cl)cccc3Cl)c(C)ccc12 | > 250 °C
C=Cc1cn(-c2ccccn2)c2c1C(=O)CC(C)(C)C2 | 150 to 154 °C
S=C(Nc1ccccc1)c1ccccn1 | 45 to 46 °C
O=C(O)CN1C(=O)SC(=Cc2ccc(OCc3ccccc3)c(OCc3ccccc3)c2)C1=O | 167 to 170 °C
CCN1NN(N)N=C1C | 45 to 50 °C
Clc1cccc(N2CCC3CCc4cnccc4C3=N2)c1 (stereo not given) | 152 to 155 °C
Cc1coc2c1C(=O)CC(c1ccco1)C2 (stereo not given) | 60 to 61 °C
CC(=O)N1CCc2ccc(C(O)CCCN3CCC(c4ccc(Cl)cc4)CC3)cc2CC1 (stereo not given) | 113 to 114 °C
Cc1cccc(-c2nc3cccnn3c2-c2ccnc(N[C@@H](C)c3ccccc3)c2)c1 | 154 to 155 °C
O=S(=O)(Cl)CCc1ccc(Cl)cc1 | 87 to 87.5 °C
OCc1cccc(-c2ccc(-c3cn([C@H]4CN5CCC4CC5)nn3)cc2)c1 | 207 °C
CS(=O)(=O)N1CCC(Nc2nc(Nc3ccc(F)c(CN4CCOCC4)c3)nc(OCC(F)(F)F)n2)CC1 | 96 to 98 °C
CC1CCC(=Nc2ccccc2)N1Cc1c[nH]c2ccccc12 (stereo not given) | 88 to 92 °C
O=C(Cc1c(-c2ccccc2)nn(-c2ccccc2)c1-c1ccccc1)Oc1ccccc1C(=O)O | 190 to 191 °C
C[C@@H](O)[C@H](CN)C(=O)O | 120 to 123 °C
CCCCOc1nccc2c1C(c1ccccc1C(F)(F)F)C(C(=O)OCC)=C(C)N2 (stereo not given) | 174 to 175 °C
CCCn1cc(Cc2ccc(C(=O)NS(=O)(=O)c3ccccc3C)cc2OC)c2cc(CC3CCN(CC)C3=O)ccc21 (stereo not given) | 107 to 115 °C
O=[N+]([O-])N=C(NCc1cnc(Cl)s1)NCc1cnc(Cl)s1 | 217 to 218 °C
COCC(C)Nc1cc(-c2ccnc(Nc3cccc(Cl)c3)n2)cc(Cl)n1 (stereo not given) | 128 to 129 °C
CC1(C)CC(C(O)CNc2nc(Cl)nc(NCC(O)C3CC(C)(C)NC(C)(C)C3)n2)CC(C)(C)N1 (stereo not given) | 206 to 207 °C

Results, then the compound that gave them:

melting point | SMILES
179 to 180 °C | NC(=O)c1cc([N+](=O)[O-])cc(Br)n1
149 to 151 °C | Nc1cc(Cl)nc(C(=O)O)c1C(F)F
150 to 155 °C | Nc1cnc(NCCSCc2csc(CN3CCCCC3)c2)[nH]c1=O
116 to 119 °C | Cc1nccn1C(=O)c1c(Cl)cccc1Cl
95 °C | N#CC(C(=O)c1cc(F)c(Cl)cc1Cl)=C(N)C1CC1
220 to 221 °C | COc1ccc(C(=O)OC(=C2C(=O)N(C(N)=O)c3cc(Cl)c(F)cc32)c2cccs2)cc1
97 to 98 °C | COc1c(C(=O)c2ccc([N+](=O)[O-])cc2Cl)c(C)nn1C
143 °C | CCOc1cc(=O)n(-c2ccc([N+](=O)[O-])cc2)[nH]1
136 to 137 °C | O=c1c([N+](=O)[O-])c(Cl)nc2sc(CCC3CCCCC3)nn12
86 to 88 °C | CC(C)c1cn(C(C)(C)C(=O)N(C)C)nc1-c1ccccc1Cl
101 to 103 °C | CC(=O)c1ccc(OCCCCl)c(O)c1
190 to 194 °C | O=C(Nc1ccccc1)c1cc(Oc2ccc(C(F)(F)F)cc2Cl)ccc1[N+](=O)[O-]
164 to 166 °C | COc1ccc(C(=O)c2cccc3c2CCC3C(N)=O)cc1 (stereo not given)
233 to 235 °C | CNC(=O)c1cc2ccc3c(c2c(-c2ccc4c(c2)OCO4)c1CO)OCO3
82 to 84 °C | CCOC(=O)C1CCc2cc3ccccc3n2C1=O (stereo not given)
143 °C | CCN1CCc2ccc(Nc3ncc(Cl)c(N[C@H]4CCCC[C@H]4C(=O)NC)n3)cc2CC1 (relative stereo)
> 300 °C | O=C(O)c1ccccc1Sc1c(O)c2ccc(Cl)cc2[nH]c1=O
147 °C | Cc1nccc(N2CCN(C(=O)c3ccccc3)CC2)n1
130 to 132 °C | Cc1c(C(C)N(O)C(N)=O)sc2ccccc12 (stereo not given)
208 to 216 °C | NS(=O)(=O)c1ccc(N2CN(c3cccc(Cl)c3)CC2=O)c(Cl)c1
148 to 151 °C | O=c1cc2c(nn1-c1ccc(Cl)cc1)-c1cc(Br)sc1SCC2
207 to 209 °C | O=[N+]([O-])c1ccc(-c2nnc3ccc(N=CCN4CCCCC4)nn23)o1
110 to 112 °C | CCC(c1ccc(Br)cc1)N(O)C(=O)NC (stereo not given)
170 to 173 °C | O=C(OCc1ccc[nH]c1=O)c1ccc(F)cc1
134 to 136 °C | COc1cc2c(cc1OC)C(Cc1ccc([N+](=O)[O-])cc1)NCC2 (stereo not given)
